Experimental data taken from US20170119660A1, “PHARMACEUTICAL COMPOSITIONS FOR TRANSMUCOSAL DELIVERY” (Solubest Ltd, priority 2015, published 2017).

Experiments:
[1] = Dissolution test of cannabidiol compositions in FaSSIF; assay type: physicochemical; set-up: unit not given here; conditions: 200 ml FaSSIF, drug loading 20 mg
Description: (§1) The liquid intermediates, containing the active compound(s) and the polymers, were prepared using different size glassware, magnetic plates, peristaltic pump and tubing. The spray-drying process was conducted using Mini Spray Dryer B-290 of Buchi Labortechnik AG. Tablet compression was performed with a Mini 8-D tablet press Dynamic Exim Co. Ltd. Granules preparation was performed with Dynamic Exim dry granulator. The dissolution test was performed in accordance with USP Dissolution Method <711> and FDA Dissolution Methods for Drug Products using the paddle apparatus Pharma Test model DT70 equipped with 1L and 250 ml vessels. The quantification was performed using HPLC, Dionex. Appropriate amount of prepared granules or tablets as well as control powders or tablets were dissolved in 250 ml of artificial saliva, at 37° C., with rotation speed of 75 rpm. Simulated saliva solution was prepared according to SS5 solution recipe reported in Marques et al, 2011, Dissolution Technologies, 18, 15-28. The tablets disintegration test was performed in accordance with USP Disintegration Method <701>.
Unformulated cannabidiol (CBD) and composition of the present invention (Example 13) were subjected to a dissolution test in 200 ml of Fasted State Simulating Intestinal Fluid (FaSSIF). The drug loading was 20 mg.

[2] = Dissolution test of powders and granules in simulated saliva; assay type: physicochemical; conditions: drug loading 10 mg/ml
Description: as §1, with “The dissolution test was performed in accordance with USP Dissolution Method <711> and FDA Dissolution Methods for Drug Products using the paddle apparatus Pharma Test model DT70 equipped with 1L and 250 ml vessels.” left out, “<701>. […] The drug loading in the first set of experiments was 2.5 mg/ml.” for “<701>.”

EpiOral™ buccal tissues = experiment: Franz diffusion cell permeability through human buccal tissue; assay type: in vitro ADME; conditions: 7.5 mg/ml in artificial saliva
Description: Permeability studies were performed as follows. The barrier membranes, EpiOral™ representing a highly differentiated, three-dimensional, cultured human buccal tissue equivalent were obtained from MatTek Corp (Ashland, Mass.). Samples were mounted in vertical Franz diffusion cells (PermeGear Inc., Bethlehem, Pa.). […] The fluid in each receptor compartment was maintained at 37±0.5° C. by using a thermostatic water pump (Freed Electric, Haifa, Israel) that circulated water through the jacket surrounding each main chamber. The biological membranes were initially left in the Franz cells for 1 h in order to facilitate their hydration before the experiment. After this period, a 500-μL aliquot of 7.5 mg/ml sumatriptan solution/dispersion in artificial saliva was deposited in each donor compartment. The donor compartment was covered with Parafilm® to prevent evaporation. Receptor solution samples of 300 μL were then collected at 3, 6, 9, 12, 20, 40 and 60 minutes and replaced with 300 μL phosphate buffer, placed on ice and stored at −20° C. until subjected to HPLC or LCMS analysis. Each permeation experiment was conducted as four replicate runs.
The permeability of unformulated sumatriptan base, of API (in the base form) released from the composition of the present invention (Example 3) and of the commercial formulation Imitrex® was tested using EpiOral™ buccal tissues as described in the Methods section. EpiOral™ buccal tissues consist of normal, human-derived epithelial cells that have been cultured to form multilayered, highly differentiated models of the human buccal phenotypes.

SMILES | Dissolution profile ([1]; Time 0) | Dissolution profile ([1]; Time 10) | Dissolution profile ([1]; Time 20) | Dissolution profile ([1]; Time 30) | Dissolution profile ([1]; Time 45) | Dissolution profile ([1]; Time 60) | Dissolution profile ([1]; Time 90) | Drug released ([2]; 5 min) | Drug released ([2]; 10 min) | Drug released ([2]; 20 min) | STP Permeability (EpiOral™ buccal tissues; time point 0 min) | STP Permeability (EpiOral™ buccal tissues; time point 3 min) | STP Permeability (EpiOral™ buccal tissues; time point 6 min) | STP Permeability (EpiOral™ buccal tissues; time point 9 min) | STP Permeability (EpiOral™ buccal tissues; time point 12 min) | STP Permeability (EpiOral™ buccal tissues; time point 20 min) | STP Permeability (EpiOral™ buccal tissues; time point 40 min) | STP Permeability (EpiOral™ buccal tissues; time point 60 min)
C=C(C)[C@@H]1CCC(C)=C[C@H]1c1c(O)cc(CCCCC)cc1O [Unformulated CBD, Cannabidiol] | 0 | 1.7 | 2.7 | 3.8 | 5.2 | 6.3 | 8.2 |  |  |  |  |  |  |  |  |  |  | 
CNS(=O)(=O)Cc1ccc2[nH]cc(CCN(C)C)c2c1 [Unformulated sumatriptan, Sumatriptan base] |  |  |  |  |  |  |  | 13% | 13% | 13% | 0.000 μg/cm^2 | 0.330 μg/cm^2 | 0.736 μg/cm^2 | 0.964 μg/cm^2 | 1.295 μg/cm^2 | 2.671 μg/cm^2 | 6.938 μg/cm^2 | 14.887 μg/cm^2
